These results are taken from PubChem BioAssay (NCI).

The structures appear in SMILES notation.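 Compound exposure: 48 hours, 5 concentrations, 96-well plates. Definition used: TGI = concentration required for complete inhibition of growth.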 Where only a bound is given, the exact number is not on record here.

Test systems include HCC-2998 colon; HS 578T breast; HT29 colon; KM12 colon; UO-31 renal.
Common to all, as to assay: NCI-60 cell line screen, 48 h

As for `N#CC1Nc2ccccc2[C@@H](O)C1O` (some centres not stated), the TGI in the assay with HCC-2998 colon, with HS 578T breast, in the assay on HT29 colon and in the assay with KM12 colon was over 100 µM throughout.
Take `Cc1cn(C2CC(ON3C(=O)c4ccccc4C3=O)C(CO)O2)c(=O)[nH]c1=O` (configuration not stated): the TGI in the assay with UO-31 renal, with HCC-2998 colon, with HS 578T breast, in the assay on HT29 colon and with KM12 colon was over 10 µM throughout.
Turning to `O=C(O)c1nc(-c2ccccn2)c(-c2ccccn2)nc1C(=O)O`, the TGI was 8.15 µM in the assay on UO-31 renal; 3.45 µM with HCC-2998 colon; over 72.6 µM in the assay with HS 578T breast; 8.54 µM with HT29 colon; 17.9 µM in the assay on KM12 colon.
For `Cc1ccc(S(=O)(=O)C2=Cc3ccc(C(F)(F)F)cc3C2(O)c2cccc(C(F)(F)F)c2)cc1` (configuration not stated), in that order: 6.11 µM, 4.63 µM, over 27.2 µM, 5.14 µM and 4.53 µM.
Regarding `C=CCN1C[C@H](C)N([C@H](c2ccc(C(=O)N(CC)CCO)cc2)c2cccc(OC)c2)C[C@H]1C`, the TGI with UO-31 renal, in the assay with HS 578T breast, in the assay on HT29 colon and in the assay on KM12 colon was over 100 µM throughout.
With `CC(=O)OC1CC2c3cccc4c3C(CC2N(C)C1=O)CN4C(=O)c1ccccc1` (configuration not stated), the TGI was determined as 42.1 µM in the assay with UO-31 renal, 43.5 µM with HCC-2998 colon, 49.9 µM with HT29 colon and 55.8 µM with KM12 colon.
As to `CCN(CC)/C(Cl)=C(Cl)\C(=C1\Nc2ccc(OC)cc21)[N+](=O)[O-]`, the TGI in the assay with UO-31 renal, with HCC-2998 colon, in the assay on HS 578T breast, in the assay on HT29 colon and in the assay with KM12 colon was over 100 µM throughout.
As to `Cn1ccc(C(=O)NCCOCCNC(=O)c2ccn(C)c(=O)c2O)c(O)c1=O`, the TGI in the assay with UO-31 renal, in the assay on HCC-2998 colon, in the assay on HS 578T breast, with HT29 colon and in the assay with KM12 colon was over 100 µM in each case.
Take `C/C(=N\Nc1cc(CN2CCCC2)c(-c2ccc(Cl)cc2)nn1)C(=O)O`: the TGI in the assay on UO-31 renal, in the assay with HS 578T breast, in the assay with HT29 colon and in the assay with KM12 colon was over 100 µM each time.
In the case of `Clc1ccc(Cl)c(Nc2ccnc(SCc3ccccc3)n2)c1`, the TGI in the assay on UO-31 renal, in the assay on HS 578T breast, in the assay on HT29 colon and with KM12 colon was over 100 µM throughout.
With `CO[C@H]1[C@@H](O)[C@@H](C)O[C@@H](O[C@H]2CC[C@@]3(C)[C@H](CC[C@@H]4[C@@H]3CC[C@]3(C)[C@@H](C5=CC(=O)OC5)[C@@H](OC(C)=O)C[C@]43O)C2)[C@@H]1O`, the TGI turned out to be 0.0686 µM with UO-31 renal; 0.824 µM in the assay with HCC-2998 colon; 0.124 µM in the assay with HS 578T breast; 0.209 µM with HT29 colon; 0.592 µM in the assay with KM12 colon.
For the compound `CC1=NC(=Cc2ccc(O)cc2)C(=O)N1n1c(-c2ccccc2)nc2ccccc2c1=O`, the TGI with UO-31 renal, in the assay with HCC-2998 colon, with HS 578T breast, in the assay with HT29 colon and in the assay on KM12 colon was over 100 µM each time.
As to `c1cc(-c2ncc(-c3ccc4c(c3)CCCO4)o2)ccn1`, the TGI in the assay on UO-31 renal was over 100 µM; with HS 578T breast it was over 100 µM; in the assay with HT29 colon it was 32 µM.
Take `COc1cccc(OC)c1/C=C1\OC(=O)c2cccc(OC)c21`: the TGI was over 100 µM in the assay with UO-31 renal; over 100 µM in the assay with HCC-2998 colon; 26.7 µM in the assay with HS 578T breast; over 100 µM in the assay on HT29 colon; over 100 µM with KM12 colon.
Consider `COn1cc(C=O)c2ccccc21`, for which the TGI is over 100 µM with UO-31 renal; 53.7 µM in the assay with HCC-2998 colon; over 100 µM in the assay with HS 578T breast; over 100 µM with HT29 colon; over 56.5 µM with KM12 colon.
Regarding `CNC(=S)N/N=C(C)\C(=N/NC(=S)NC)c1ccccc1`, the TGI is over 100 µM in the assay on UO-31 renal, over 100 µM with HCC-2998 colon, 72.5 µM in the assay on HS 578T breast and over 100 µM in the assay on KM12 colon.
For `O=C1NC(=O)C(c2c[nH]c3cc(Br)ccc23)=C1c1cn(C(c2ccccc2)(c2ccccc2)c2ccccc2)cn1`, the TGI with UO-31 renal was 31.9 µM; in the assay on HCC-2998 colon, 26.4 µM; with HS 578T breast, over 100 µM; in the assay with HT29 colon, 27.1 µM; with KM12 colon, over 100 µM.
Turning to `CCOC(=O)c1nc2c(Cl)c3ncccc3cc2[nH]c1=O`, the TGI in the assay on UO-31 renal is over 100 µM; in the assay on HCC-2998 colon it was 43.8 µM; with HS 578T breast, over 100 µM; in the assay on HT29 colon, over 100 µM; in the assay on KM12 colon, over 100 µM.
In the case of `CCN1c2nc3ccccc3nc2N(CC)c2nc3ccccc3nc21`, the TGI in the assay on UO-31 renal, in the assay on HCC-2998 colon, with HS 578T breast, in the assay on HT29 colon and with KM12 colon was over 100 µM in each case.
`O=C(O)c1ccc(NNc2cc(=O)[nH]c(=O)[nH]2)cc1`: the TGI in the assay with UO-31 renal, in the assay on HCC-2998 colon, in the assay with HS 578T breast, in the assay on HT29 colon and with KM12 colon was over 100 µM throughout.
In the case of `CC(=O)c1csc2c1C(=O)c1scc(C(C)=O)c1C2=O`, the TGI amounted to 3.61 µM in the assay on UO-31 renal, 6.48 µM in the assay on HS 578T breast, 4.61 µM in the assay with HT29 colon and 3.53 µM with KM12 colon.
Take `Cc1cccc2c1Oc1cc(Cl)ccc1C2NC(=O)CCN1CCOCC1` (configuration not stated): the TGI in the assay with UO-31 renal, with HCC-2998 colon, in the assay on HT29 colon and with KM12 colon was over 100 µM throughout.
Turning to `COc1ccc2c3c1O[C@H]1C(O)CCC4(O)[C@@H](C2)NCC[C@]314` (some centres not stated), the TGI in the assay on UO-31 renal, in the assay with HS 578T breast, in the assay with HT29 colon and in the assay on KM12 colon was over 100 µM each time.
`O=C1c2cc3c(cc2CC12Cc1cc4c(cc1C2=O)CCC4)CCCC3` (configuration not stated): the TGI with UO-31 renal, in the assay with HCC-2998 colon, with HS 578T breast and with HT29 colon was over 100 µM throughout.
For `NS(=O)(=O)c1ccc(-n2c(-c3cccs3)nc3ccc(I)cc3c2=O)cc1`, the TGI with UO-31 renal came to 42.6 µM; with HCC-2998 colon, 39.9 µM; in the assay with HT29 colon, 94.1 µM; with KM12 colon it was 59.3 µM.
